pIC50: −log10 of the molar value.
Biological target: SARS-CoV-2 MPro (Severe acute respiratory syndrome coronavirus 2, UniProt P0DTD1)
Test: MPro activity assay (de-quenching of Edans fluorescence on cleavage of a Dabcyl/Edans peptide)
Assay type: biochemical
Conditions: 60 min pre-incubation, 5 μM substrate

SMILES | pIC50
O=C(/C=C/c1ccc2ccccc2c1)c1ccccc1O [25d] | 6.30

Same assay, conditions: in-house acquired data, internal screening under standardized conditions (128 compounds)

SMILES | Class (MPro activity class)
COc1ccc(C2C(C(=O)c3ccc4c(c3)OCCO4)=C(O)C(=O)N2c2nc3ccc(C)cc3s2)cc1 (stereo not shown) [AD81] | 0 (compounds with IC50 > 20 μM, percentage inhibition <80% at 20 µM or 50 μM, or percentage enzyme inhibition <50% at 10 µM were labelled as INACTIVE)
Cc1ccc2nc(N3C(=O)C(O)=C(C(=O)c4ccc5c(c4)OCCO5)C3c3ccc(O)cc3)sc2c1 (stereo not shown) [AD82] | 0 (compounds with IC50 > 20 μM, percentage inhibition <80% at 20 µM or 50 μM, or percentage enzyme inhibition <50% at 10 µM were labelled as INACTIVE)
O=C(C1=C(O)C(=O)N(c2nc3ccc(Cl)cc3s2)C1c1ccc(O)cc1)c1ccc2c(c1)OCCO2 (stereo not shown) [AD83] | 0 (compounds with IC50 > 20 μM, percentage inhibition <80% at 20 µM or 50 μM, or percentage enzyme inhibition <50% at 10 µM were labelled as INACTIVE)
COc1ccc(C2C(C(=O)c3ccc4c(c3)OCCO4)=C(O)C(=O)N2c2nc3ccc(Cl)cc3s2)cc1 (stereo not shown) [AD84] | 0 (compounds with IC50 > 20 μM, percentage inhibition <80% at 20 µM or 50 μM, or percentage enzyme inhibition <50% at 10 µM were labelled as INACTIVE)
CCCN1C(=O)C(O)=C(C(=O)c2ccccc2)C1c1ccccc1 (stereo not shown) [AD85] | 0 (compounds with IC50 > 20 μM, percentage inhibition <80% at 20 µM or 50 μM, or percentage enzyme inhibition <50% at 10 µM were labelled as INACTIVE)
COc1ccc(C2C(C(=O)c3ccc4c(c3)OCCO4)=C(O)C(=O)N2c2nc3ccc(OC)cc3s2)cc1 (stereo not shown) [ADKPN160] | 0 (compounds with IC50 > 20 μM, percentage inhibition <80% at 20 µM or 50 μM, or percentage enzyme inhibition <50% at 10 µM were labelled as INACTIVE)
O=C(C1=C(O)C(=O)N(c2nc3ccccc3s2)C1c1ccc(F)cc1)c1ccc2c(c1)OCCO2 (stereo not shown) [ADKPN161] | 0 (compounds with IC50 > 20 μM, percentage inhibition <80% at 20 µM or 50 μM, or percentage enzyme inhibition <50% at 10 µM were labelled as INACTIVE)
COc1ccc(C2C(C(=O)c3ccc(OC)c(OC)c3)=C(O)C(=O)N2c2nc3ccc(OC)cc3s2)cc1 (stereo not shown) [ADKPN162] | 0 (compounds with IC50 > 20 μM, percentage inhibition <80% at 20 µM or 50 μM, or percentage enzyme inhibition <50% at 10 µM were labelled as INACTIVE)
COc1ccc(C2C(C(=O)c3ccc(OC)c(OC)c3)=C(O)C(=O)N2c2nc3ccc(Cl)cc3s2)cc1 (stereo not shown) [ADKPN163] | 0 (compounds with IC50 > 20 μM, percentage inhibition <80% at 20 µM or 50 μM, or percentage enzyme inhibition <50% at 10 µM were labelled as INACTIVE)
COc1ccc(C(=O)C2=C(O)C(=O)N(c3nc4ccc(Cl)cc4s3)C2c2ccc(F)cc2)cc1OC (stereo not shown) [ADKPN164] | 0 (compounds with IC50 > 20 μM, percentage inhibition <80% at 20 µM or 50 μM, or percentage enzyme inhibition <50% at 10 µM were labelled as INACTIVE)
COc1ccc(C2C(C(=O)c3ccc4c(c3)OCCO4)=C(O)C(=O)N2c2nc3ccccc3s2)cc1 (stereo not shown) [ADKPN165] | 0 (compounds with IC50 > 20 μM, percentage inhibition <80% at 20 µM or 50 μM, or percentage enzyme inhibition <50% at 10 µM were labelled as INACTIVE)
O=C(C1=C(O)C(=O)N(c2nc3ccc(Cl)cc3s2)C1c1ccc(F)cc1)c1ccc2c(c1)OCCO2 (stereo not shown) [ADRMC150] | 0 (compounds with IC50 > 20 μM, percentage inhibition <80% at 20 µM or 50 μM, or percentage enzyme inhibition <50% at 10 µM were labelled as INACTIVE)
Cc1ccc2nc(N3C(=O)C(O)=C(C(=O)c4ccc5c(c4)OCCO5)C3c3ccccc3)sc2c1 (stereo not shown) [ADRMC151] | 0 (compounds with IC50 > 20 μM, percentage inhibition <80% at 20 µM or 50 μM, or percentage enzyme inhibition <50% at 10 µM were labelled as INACTIVE)
COc1cc(C2C(C(=O)c3ccc4c(c3)OCCO4)=C(O)C(=O)N2c2nc3ccc(C)cc3s2)ccc1O (stereo not shown) [ADRMC152] | 0 (compounds with IC50 > 20 μM, percentage inhibition <80% at 20 µM or 50 μM, or percentage enzyme inhibition <50% at 10 µM were labelled as INACTIVE)
COc1ccc(C2C(C(=O)c3ccc4c(c3)OCCO4)=C(O)C(=O)N2c2nc3ccc(C)cc3s2)cc1OC (stereo not shown) [ADRMC153] | 0 (compounds with IC50 > 20 μM, percentage inhibition <80% at 20 µM or 50 μM, or percentage enzyme inhibition <50% at 10 µM were labelled as INACTIVE)
Cc1ccc2nc(N3C(=O)C(O)=C(C(=O)c4ccc5c(c4)OCCO5)C3c3ccc(F)cc3)sc2c1 (stereo not shown) [ADRMC154] | 0 (compounds with IC50 > 20 μM, percentage inhibition <80% at 20 µM or 50 μM, or percentage enzyme inhibition <50% at 10 µM were labelled as INACTIVE)
COc1ccc2nc(N3C(=O)C(O)=C(C(=O)c4ccc5c(c4)OCCO5)C3c3ccc(OC)c(OC)c3)sc2c1 (stereo not shown) [ADRMC155] | 0 (compounds with IC50 > 20 μM, percentage inhibition <80% at 20 µM or 50 μM, or percentage enzyme inhibition <50% at 10 µM were labelled as INACTIVE)
COc1ccc2nc(N3C(=O)C(O)=C(C(=O)c4ccc5c(c4)OCCO5)C3c3ccc(O)c(OC)c3)sc2c1 (stereo not shown) [ADRMC156] | 0 (compounds with IC50 > 20 μM, percentage inhibition <80% at 20 µM or 50 μM, or percentage enzyme inhibition <50% at 10 µM were labelled as INACTIVE)
COc1ccc(C2C(C(=O)c3ccc4c(c3)OCCO4)=C(O)C(=O)N2c2nc3ccc(Cl)cc3s2)cc1OC (stereo not shown) [ADRMC157] | 0 (compounds with IC50 > 20 μM, percentage inhibition <80% at 20 µM or 50 μM, or percentage enzyme inhibition <50% at 10 µM were labelled as INACTIVE)
COc1cc(C2C(C(=O)c3ccc4c(c3)OCCO4)=C(O)C(=O)N2c2nc3ccc(Cl)cc3s2)ccc1O (stereo not shown) [ADRMC158] | 0 (compounds with IC50 > 20 μM, percentage inhibition <80% at 20 µM or 50 μM, or percentage enzyme inhibition <50% at 10 µM were labelled as INACTIVE)

SMILES | Class (MPro activity class)
O=C(C1=C(O)C(=O)N(c2nc3ccc(Cl)cc3s2)C1c1ccccc1)c1ccc2c(c1)OCCO2 (stereo not shown) [ADRMC159] | 0 (compounds with IC50 > 20 μM, percentage inhibition <80% at 20 µM or 50 μM, or percentage enzyme inhibition <50% at 10 µM were labelled as INACTIVE)
COC(=O)CN1C(=O)C(C2C(=O)OCC2c2ccccc2)C1C=Cc1ccccc1 (stereo not shown) [CMD111] | 0 (compounds with IC50 > 20 μM, percentage inhibition <80% at 20 µM or 50 μM, or percentage enzyme inhibition <50% at 10 µM were labelled as INACTIVE)
O=c1[nH]sc2ccccc12 [COV19001] | 1 (Compounds with IC50 < 10 µM or with a percentage of enzyme inhibition >50% at 10 µM were labelled as ACTIVE)
Cc1cccc2c(=O)[nH]sc12 [COV19002] | 0 (compounds with IC50 > 20 μM, percentage inhibition <80% at 20 µM or 50 μM, or percentage enzyme inhibition <50% at 10 µM were labelled as INACTIVE)
O=c1c2ccccc2sn1Cc1ccc(F)cc1 [COV19003] | 1 (Compounds with IC50 < 10 µM or with a percentage of enzyme inhibition >50% at 10 µM were labelled as ACTIVE)
O=c1c2ccccc2sn1Cc1ccc(C(F)(F)F)cc1 [COV19004] | 1 (Compounds with IC50 < 10 µM or with a percentage of enzyme inhibition >50% at 10 µM were labelled as ACTIVE)
Cc1cc(Cl)cc2sn(Cc3ccccc3)c(=O)c12 [COV19006] | 1 (Compounds with IC50 < 10 µM or with a percentage of enzyme inhibition >50% at 10 µM were labelled as ACTIVE)
Cc1cccc2c(=O)n(Cc3ccccc3)sc12 [COV19007] | 0 (compounds with IC50 > 20 μM, percentage inhibition <80% at 20 µM or 50 μM, or percentage enzyme inhibition <50% at 10 µM were labelled as INACTIVE)
COc1ccc(Cn2sc3ccccc3c2=O)cc1 [COV19009] | 1 (Compounds with IC50 < 10 µM or with a percentage of enzyme inhibition >50% at 10 µM were labelled as ACTIVE)
O=c1c2ccccc2sn1-c1ccccc1 [COV19010] | 1 (Compounds with IC50 < 10 µM or with a percentage of enzyme inhibition >50% at 10 µM were labelled as ACTIVE)
Cc1cccc(Cl)c1-n1sc2ccccc2c1=O [COV19011] | 1 (Compounds with IC50 < 10 µM or with a percentage of enzyme inhibition >50% at 10 µM were labelled as ACTIVE)
O=c1c2ccccc2sn1-c1ccc(C(F)(F)F)cc1 [COV19012] | 1 (Compounds with IC50 < 10 µM or with a percentage of enzyme inhibition >50% at 10 µM were labelled as ACTIVE)
O=c1c2ccccc2sn1-c1ccc2ccccc2c1 [COV19013] | 1 (Compounds with IC50 < 10 µM or with a percentage of enzyme inhibition >50% at 10 µM were labelled as ACTIVE)
O=c1c2ccccc2sn1-c1ccc([N+](=O)[O-])cc1 [COV19014] | 1 (Compounds with IC50 < 10 µM or with a percentage of enzyme inhibition >50% at 10 µM were labelled as ACTIVE)
Cc1ccc(-n2sc3ccccc3c2=O)cc1 [COV19015] | 1 (Compounds with IC50 < 10 µM or with a percentage of enzyme inhibition >50% at 10 µM were labelled as ACTIVE)
O=c1c2ccccc2sn1-c1ccc(Cl)cc1 [COV19016] | 1 (Compounds with IC50 < 10 µM or with a percentage of enzyme inhibition >50% at 10 µM were labelled as ACTIVE)
Cc1cccc2c(=O)n(-c3ccccc3)sc12 [COV19017] | 0 (compounds with IC50 > 20 μM, percentage inhibition <80% at 20 µM or 50 μM, or percentage enzyme inhibition <50% at 10 µM were labelled as INACTIVE)
Cc1ccc(-n2sc3cc(Cl)cc(C)c3c2=O)cc1 [COV19018] | 1 (Compounds with IC50 < 10 µM or with a percentage of enzyme inhibition >50% at 10 µM were labelled as ACTIVE)
CCOC(=O)c1ncc(-n2sc3ccccc3c2=O)s1 [COV19019] | 1 (Compounds with IC50 < 10 µM or with a percentage of enzyme inhibition >50% at 10 µM were labelled as ACTIVE)
O=C1NCCCCC1n1sc2ccccc2c1=O (stereo not shown) [COV19020] | 1 (Compounds with IC50 < 10 µM or with a percentage of enzyme inhibition >50% at 10 µM were labelled as ACTIVE)

Same assay, conditions: read-out: MPro inhibition

SMILES | inhibition at 25 µM [%]
O=C(/C=C/c1ccc2ccccc2c1)c1ccc2ccccc2c1O [26d] | 45
COc1ccc(S(=O)(=O)Nc2nc3cc(Cl)c(Oc4cccc(Cl)c4Cl)cc3[nH]2)cc1 [30d] | 42
O=S(=O)(Nc1nc2cc(Cl)c(Oc3cccc(Cl)c3Cl)cc2[nH]1)c1ccc(Br)cc1 [32d] | 25
O=C1/C(=C/C=C/c2cccs2)CC/C1=C\C=C\c1cccs1 [37d] | 20 to 40
[O-][n+]1cc[n+]([O-])c2ccccc21 [38d] | 20 to 40

From publication PMC10323144, “Garbage in, garbage out: how reliable training data improved a virtual screening approach against SARS-CoV-2 MPro” (Frontiers in Pharmacology, 2023)
